Reference: patent US20140309295A1, “ANTIEPILEPTIC, HYPOCHOLESTEROLEMIC AND NEUROPROTECTIVE COMPOUND” (NEURON BIOPHARMA, S.A., priority 2009, published 2014)

Key:
HMGR enzyme = molecular target: T1, HMGR enzyme (Homo sapiens, UniProt P04035); test: Inhibition of HMGR enzyme activity (NADPH absorbance 340 nm); type: biochemical; details: acid form, 37° C.
T1 sequence (P04035 426-888 limits assumed): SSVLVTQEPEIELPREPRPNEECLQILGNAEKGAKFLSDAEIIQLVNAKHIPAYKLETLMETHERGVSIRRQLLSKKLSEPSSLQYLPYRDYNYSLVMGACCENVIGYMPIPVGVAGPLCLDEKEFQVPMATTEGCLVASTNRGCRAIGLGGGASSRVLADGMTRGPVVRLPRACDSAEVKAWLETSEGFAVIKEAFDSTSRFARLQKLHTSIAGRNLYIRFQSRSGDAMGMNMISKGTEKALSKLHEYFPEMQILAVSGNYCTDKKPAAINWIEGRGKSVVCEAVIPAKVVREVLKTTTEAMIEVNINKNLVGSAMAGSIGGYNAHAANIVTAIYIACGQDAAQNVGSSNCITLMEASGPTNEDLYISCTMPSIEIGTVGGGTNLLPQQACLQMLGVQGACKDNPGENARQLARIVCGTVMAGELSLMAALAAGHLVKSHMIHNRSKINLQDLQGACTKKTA
Method: Due to the nature of the compound, the degree of inhibition of the HMGR enzyme by compound NST0037 was determined since this enzyme is key in cellular cholesterol synthesis and in the physiological regulation of said synthesis. […] For the reaction, HMGR uses NADPH as a reducing agent and 3-hydroxy-3-methylglutaryl coenzyme A (HMGCoA) as a substrate, producing mevalonic acid, CoASH and NADP+. The reduction of the absorbance at which NADPH (340 nm) is absorbed is a direct measurement of the catalytic activity of HMGR and serves to calculate the inhibition percentages of different compounds. In order to take the HMGR inhibition, the assay was performed on a 96-well plate, with a total reaction volume of 200 μl. The reaction buffer (50 mM KH2PO4, 1 M KCl, 2 mg/ml Bovine Serum Albumin [BSA] and 5 mM DTT, at pH=7.3) was prepared at the time the reaction was conducted and was maintained at 37° C. […] The acid form of the compounds is used in all the cases.
The reduction of absorbance at 340 nm allows calculating the percentage of HMGR enzyme activity with respect to the control. The IC50 were determined by means of the Trimmed Spearman-Karber method (Version 1.5).

[1] = tested on: human neuroblastoma SK-N-MC cells; test: Protection against neuronal death induced by inhibition of PP1 (okadaic acid), WST-1; type: cell-based; details: 40 μM NST0037; 20 nM okadaic acid
Method: The assay was performed on human neuroblastoma SK-N-MC cells in culture from the American Type Culture Collection (ATCC), in all cases strict rules of sterility were followed and the manipulation was performed in class II biological safety cabinets following European standard EN 12469. The cells were maintained in the following culture medium: Minimum Essential Medium Eagle (MEM) supplemented with 1 mM sodium pyruvate, 2 mM L-glutamine, 0.1 mM non-essential amino acids, 0.05 mg/ml gentamicin and 10% fetal bovine serum.
The inhibition caused by compound NST0037 of cell death caused by the treatment with okadaic acid (OA) which inhibits the activity of protein phosphatase 1 (PP1) was analyzed. OA is one of the most used drugs for studying the phosphorylation mechanism of the tau protein, involved in the pathogenesis and progression of AD. The inhibition of PP1 causes cytoskeleton alterations and mitochondrial damage. […]
The cells were incubated (at 37° C. and 5% CO2) with these treatments for 22 hours, after which time the WST-1 reagent (Roche) was added. […] The formazan which is formed can be detected colorimetrically since it has an absorbance of 440 nm. The reading was taken in a plate reader at 440 nm 2 hours after adding the reagent.

ApoB100 mice = test: Hypocholesterolemic effect, oral 28 days, endogenous hyperlipidemia model; type: in vivo
Method: All the animals included for the experimental process were 12-week old female mice. The experiments were conducted strictly following the Guidance on the Operation of Animals (Scientific Procedures, Act. 1986). The animals had their respective quarantine period and were treated with maximum precaution to minimize possible contaminations for inoculations and handling.
The control group received this same vehicle. Before starting the treatments and at 7, 21 and 28 days of starting them, retro-orbital blood extractions after fasting for 16 hours were carried out. The plasma was obtained from said blood, in which the total cholesterol (TC), free cholesterol (FC), cholesterol (EC), HDL-c, LDL-c, VLDL-c and apoB100 levels were evaluated by enzymatic and spectrophotometric techniques. In order to check if the effect at the lipid level involved an alteration of the oxidative stress, the redox state in the plasmas obtained was furthermore evaluated by means of the TEAC (Trolox Antioxidant Capacity Assay) technique. This technique determines the antioxidant capacity in vitro, giving an idea of the redox state of the sample analyzed by means of the absorbance capacity by electron transfer. The different components of the reaction, myoglobin, ABTS (2,2-azino-bis-(3-ethylbenzthiazoline-sulfonic acid), […] H2O2 were added to the plasmas diluted 1/10 in PBS (10 μL) in a 96-well plate. After 3 minutes of incubation, the absorbance was measured at 405 nm (with a reference of 600 nm).

adult zebrafish = test: Single-dose toxicity assay (24 hours exposure in water) in adult zebrafish; details: 14 days post-treatment
Description: Subsequently they were fed like the rest of the animals. • Weight of the animals: they were weighed at time 0 (before the treatment), at 7 and at 14 days post-treatment.
In this case, the weight of the animals of the different study groups at three established times: before starting the treatments (0 dpt), at day 7 post-treatment and at day 14 post-treatment, was used as a toxicity parameter. […] To that end, the fish were sacrificed at 14 days post-treatment (previously anesthetized) and the samples (whole fish) were included in paraffin. The hematoxylin-eosin staining was subsequently performed in order to conduct the histopathological studies, obtaining a minimum of 6 longitudinal sections per animal, for the purpose of collecting different study areas of the same organ. The following organs were studied: brain, kidney, pancreas, intestine, eye, gills, ovary, testicle, muscle and liver.

CCC(CC)C(=O)O[C@H]1C[C@@H](C)C=C2C=C[C@H](C)[C@H](CC[C@@H]3C[C@@H](O)CC(=O)O3)[C@H]21 [NST0037, (1S,2S,6R,8S,8aR)-1,2,6,7,8,8a-hexahydro-3,7-dimethyl-8-[2-[(2R,4R)-tetrahydro-4-hydroxy-6-oxo-2H-pyran-2-yl]ethyl]-1-naphthalenyl-2-ethyl-butyrate]
HMGR inhibition potency compared with atorvastatin (HMGR enzyme): surprisingly close to that of more potent statin, atorvastatin
protection against death caused by OA [1]: 57%
FC and EC levels (ApoB100 mice; 50 mg/kg oral, 7, 21 and 28 days): reduction of the FC and EC levels
HDL (ApoB100 mice; 50 mg/kg oral, 28 days): reduction of VLDL and HDL
LDL (ApoB100 mice; 50 mg/kg oral, 28 days): smaller increase of LDL
VLDL (ApoB100 mice; 50 mg/kg oral, 28 days): reduction of VLDL
apolipoprotein B (apoB) levels (ApoB100 mice; 50 mg/kg oral, 28 days): visibly reduced
redox state of the plasmas (TEAC) (ApoB100 mice; 50 mg/kg oral, 28 days): decrease the redox state
plasma total cholesterol levels (ApoB100 mice; 50 mg/kg oral, 28 days, female apoB100 mice): significantly reducing the plasma total cholesterol levels
histopathology: intestine (adult zebrafish; 2000 mg/Kg): Atrophy signs in the intestinal villi
histopathology: liver (adult zebrafish; 2000 mg/Kg): discrete inflammation areas
weight of the animals (adult zebrafish; 2000 mg/kg, 24 hours exposure in water): did not modify the weight
